Test [1] concerns Arabidopsis thaliana HisG. The following applies: cited from earlier work.
Test [2] deals with HisG. The following applies: competitive inhibitor for both substrates; cited from earlier work.
For test [3], the target named is M. tuberculosis HisG (ATP-PRTase) (Mycobacterium tuberculosis, UniProt P9WMN1). The class given is biochemical. As to conditions: read-out: inhibition of enzyme activity.
The subject of test [4] is M. smegmatis. Kind of test: Whole-cell assay, growth inhibition on agar plates. The class given is cell-based. As to conditions: 12 μg/ml, 4 days.
For test [5], the system named is E. coli HisG. The following applies: E. coli enzyme; cited from earlier work.

A value given as a limit tells only on which side of the number the result lay.

Chain of M. tuberculosis HisG (ATP-PRTase) (P9WMN1 whole entry): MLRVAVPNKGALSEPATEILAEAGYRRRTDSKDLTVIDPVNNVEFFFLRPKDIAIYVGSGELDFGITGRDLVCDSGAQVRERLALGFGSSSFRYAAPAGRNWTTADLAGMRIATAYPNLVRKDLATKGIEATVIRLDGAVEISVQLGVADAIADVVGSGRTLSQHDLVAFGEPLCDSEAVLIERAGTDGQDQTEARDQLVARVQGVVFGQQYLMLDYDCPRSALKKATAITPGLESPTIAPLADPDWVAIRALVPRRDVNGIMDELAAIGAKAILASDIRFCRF

For di-(amino-naphthyl)-disulfide, the IC50 in test [1] was 0.05 µM. For the compound `Nc1ncnc2c1ncn2[C@@H]1O[C@H](COP(=O)(O)O)[C@@H](O)[C@H]1O` [AMP, adenosine monophosphate], the Ki in test [2] is 550 µM. With `O=C(CSc1nnc(-c2ccccc2)c(-c2ccccc2)n1)Cc1nccs1` [Compound 4], the inhibition at 10 µM in test [3] was > 50%. With `O=[N+]([O-])c1ccc(Nc2cc(Nc3cccc(O)c3)c3nonc3c2[N+](=O)[O-])c(O)c1` [Compound 18], in test [4], the growth inhibition result is listed as “significant growth inhibition”. As for `COc1ccc(COC(=O)C2=C(C)NC3=C(C(=O)CC(c4cccs4)C3)C2c2cccs2)cc1` (stereo not shown) [Compound 10], the inhibition at 10 µM in test [3] is > 50%. Take `O=C(CC(NC(=O)c1ccccc1)c1ccccc1)Nc1nc2ccc([N+](=O)[O-])cc2s1` (stereo not shown) [Compound 6]: the inhibition at 10 µM in test [3] was > 50%. `O=c1oc2ccccc2c(O)c1Cc1c(O)c2ccccc2oc1=O` [dicoumarol]: in test [5], the Ki was 60 µM.

The values above are taken from PMC2610488 (Journal of medicinal chemistry, 2008).
